Drawing on patent publication US20250154140A1 (Sunnybrook Research Institute, priority 2022, published 2025), this text covers IC50 for 30 molecules.

This test has as its target BAX (Homo sapiens, UniProt Q07812). The test is described as follows: SMAC mCherry assay in permeabilized Bax-/- Bak-/- BMK cells with recombinant Bax and cBid. It counts as cell-based, mouse. The arrangement: made in house; host or cells: Escherichia coli BL21-AI. As to conditions: 20 nM Bax, 0.5 nM cBid, 60-80 minutes; read-out: SMAC mCherry I.D IC50. On the procedure:
Bax−/− Bak−/− double-knockout Baby Mouse Kidney (BMK) cells stably expressing a SMAC-(1-56)-mCherry fusion protein were cultured in DMEM complete (DMEM supplemented with 10% FBS and 1× Penicillin-Streptomycin) in 10 cm diameter tissue-culture treated dishes at 37° C. in a humidified incubator with 5% CO2 in air. Cells were washed with PBS, incubated with 1×Trypsin and resuspended in DMEM complete. Detached cells were seeded at 6000 cells per well in 50 uL DMEM complete into a 384 well Perkin-Elmer Phenoplate, incubated at room-temperature for 30 minutes followed by incubation overnight at 37° C. in a humidified incubator with 5% CO2 in air. Recombinant Bax and recombinant cBid were quickly thawed between fingers and 25 mM compound stocks in DMSO were thawed at room temperature. An 8 point titration curve of each compound was created in a 384-well source plate containing Trehalose-Hepes Buffer (THB, 135 mM trehalose, 50 mM KCl, 10 mM HEPES-KOH pH 7.4, 5 mM succinate, 20 uM EDTA, 20 uM EGTA, 0.1% BSA) supplemented with 1/1000 DRAQ5, 0.0025% digitonin, 20 nM Bax and 0.5 nM cBid. The source plate also contained control wells with THB supplemented with 1/1000 DRAQ5, 0.0025% digitonin plus 20 nM Bax (negative control) or 20 nM Bax and 0.5 nM cBid (positive control). Using the Vantage automated liquid handler, DMEM complete media was removed from the cells growing in the 384 well Phenoplate. The cells were washed 2× with 30 uL THB and then 25 uL from the 384 well source plate containing THB proteins and compounds was transferred to the cells growing in the 384 well plate. The cells were incubated for 60-80 minutes at 37 C in a humidified incubator with 5% CO2 in air and then imaged on the Opera Phenix Microscope. Two image channels were acquired: 1) DRAQ5 channel, to visualize nuclei and aid in cell segmentation and 2) SMAC-mCherry channel to visualize mitochondria that retain SMAC-mCherry. Data was processed using PerkinElmer Harmony software where the cells were segmented using the DRAQ5 channel and the mean intensity of SMAC-mCherry for each cell was calculated. The single-cell lobject level data was exported and then analyzed using R code. A per cell SMAC-mCherry intensity cutoff was calculated as 1.33 times the mean per cell SMAC-mCherry intensity of the THB+Bax control. Cells with a SMAC-mCherry intensity below or equal to the cutoff were scored as “released”. The percentage SMAC-mCherry release was calculated as the number of cells scored as “released” divided by the total amount of cells multiplied by 100. Dose-response curves were fit to a 4-parameter log-logistic model to determine the IC50 value for each compound.

Sequence of BAX (Q07812 whole entry, the tested form may be a part): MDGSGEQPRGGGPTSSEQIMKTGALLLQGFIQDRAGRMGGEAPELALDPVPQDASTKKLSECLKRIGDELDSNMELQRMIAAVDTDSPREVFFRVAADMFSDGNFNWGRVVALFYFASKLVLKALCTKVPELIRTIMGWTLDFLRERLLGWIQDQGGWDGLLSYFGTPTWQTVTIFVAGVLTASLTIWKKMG

In the case of `COc1cc2ccnc(Nc3ccc(F)c(Cl)c3)c2cc1NC(=O)CCCN1C[C@@H](C)O[C@@H](C)C1` [Compound 1-5, N-(1-((3-chloro-4-fluorophenyl)amino)-6-methoxyisoquinolin-7-yl)-4-((2S,6R)-2,6-dimethylmorpholino)butanamide], the IC50 (commonly the point on the concentration scale where inhibition reaches its midpoint) fell in the range of 0.1 to 10 µM. To `COc1cc2ccnc(Nc3ccc(F)c(Cl)c3)c2cc1NC(=O)CCCN1CCOCC1` [Compound 1-6, N-(1-((3-chloro-4-fluorophenyl)amino)-6-methoxyisoquinolin-7-yl)-4-morpholinobutanamide] belongs 11 to 50 µM; to `COc1cc2ccnc(Nc3ccc(F)c(C(F)(F)F)c3)c2cc1NC(=O)CCCN1CCCCC1` [Compound 1-16, N-(1-((4-fluoro-3-(trifluoromethyl)phenyl)amino)-6-methoxyisoquinolin-7-yl)-4-(piperidin-1-yl)butanamide], 0.1 to 10 µM. For `COc1cc2ccnc(Nc3cccc(C)c3)c2cc1NC(=O)CCCN1CCCCC1` [Compound 1-11, N-(6-methoxy-1-(m-tolylamino)isoquinolin-7-yl)-4-(piperidin-1-yl)butanamide], the IC50 fell in the range of 51 to 100 µM. To `O=C(CCCN1CCCCC1)Nc1ccc2ccnc(Nc3cc(F)c(Cl)c(Cl)c3)c2c1` [Compound 1-37, N-(1-((3,4-dichloro-5-fluorophenyl)amino)isoquinolin-7-yl)-4-(piperidin-1-yl)butanamide] belongs 0.1 to 10 µM; to `COc1cc2ccnc(Nc3ccc(F)c(Cl)c3)c2cc1N(C)C(=O)CCCN1CCCCC1` [Compound 1-31, N-(1-((3-chloro-4-fluorophenyl)amino)-6-methoxyisoquinolin-7-yl)-N-methyl-4-(piperidin-1-yl)butanamide], 11 to 50 µM; to `COc1cc2ccnc(Nc3ccc(F)cc3Cl)c2cc1NC(=O)CCCN1CCCCC1` [Compound I-19, N-(1-((2-chloro-4-fluorophenyl)amino)-6-methoxyisoquinolin-7-yl)-4-(piperidin-1-yl)butanamide], 11 to 50 µM. To `COc1cc2ccnc(Nc3ccccc3)c2cc1NC(=O)CCCN1CCCCC1` [Compound 1-15, N-(6-methoxy-1-(phenylamino)isoquinoin-l7-yl)-4-(piperidin-1-yl)butanamide] belongs 51 to 100 µM; to `Cc1cc2ccnc(Nc3ccc(F)c(Cl)c3)c2cc1NC(=O)CCCN1CCCCC1` [Compound 1-17, N-(1-((3-chloro-4-fluorophenyl)amino)-6-methylisoquinolin-7-yl)-4-(piperidin-1-yl)butanamide], 11 to 50 µM; to `COc1cc2ccnc(Nc3ccc(Cl)c(Cl)c3)c2cc1NC(=O)CCCN1CCCCC1` [Compound 1-27, N-(1-((3,4-dichlorophenyl)amino)-6-methoxyisoquinolin-7-yl)-4-(piperidin-1-yl)butanamide], 0.1 to 10 µM. The same measure for `O=C(CCCN1CCCCC1)Nc1cc2c(Nc3ccc(F)c(Cl)c3)nccc2cc1Cl` [Compound 1-26, N-(6-chloro-1-((3-chloro-4-fluorophenyl)amino)isoquinolin-7-yl)-4-(piperidin-1-yl)butanamide]: 0.1 to 10 µM. `O=C(CCCN1CCCCC1)Nc1ccc2ccnc(Nc3ccc(F)c(Cl)c3)c2c1` [Compound 1-18, N-(1-((3-chloro-4-fluorophenyl)amino)isoquinolin-7-yl)-4-(piperidin-1-yl)butanamide]: the IC50 fell in the range of 0.1 to 10 µM. On to `O=C(CCCN1CCCCC1)Nc1ccc2ccnc(Nc3ccc(F)c(Cl)c3F)c2c1` [Compound 1-40, N-(1-((3-chloro-2,4-difluorophenyl)amino)isoquinolin-7-yl)-4-(piperidin-1-yl)butanamide], for which the IC50 fell in the range of 0.1 to 10 µM. For `COc1cc2ccnc(Nc3cc(Cl)c(F)c(Cl)c3)c2cc1NC(=O)CCCN1CCCCC1` [Compound 1-23, N-(1-((3,5-dichloro-4-fluorophenyl)amino)-6-methoxyisoquinolin-7-yl)-4-(piperidin-1-yl)butanamide], the IC50 was in the range of 0.1 to 10 µM. On to `COc1cc2ccnc(Nc3cccc(Cl)c3)c2cc1NC(=O)CCCN1CCCCC1` [Compound 1-13, N-(1-((3-chlorophenyl)amino)-6-methoxyisoquinolin-7-yl)-4-(piperidin-1-yl)butanamide], for which the IC50 was 11 to 50 µM.

For the molecule `O=C(CCCN1CCCCC1)Nc1ccc2ccnc(Nc3ccc(Cl)c(Cl)c3)c2c1` [Compound 1-35, N-(1-((3,4-dichlorophenyl)amino)isoquinolin-7-yl)-4-(piperidin-1-yl)butanamide], the IC50 is 0.1 to 10 µM. As for `COc1cc2ccnc(Nc3ccc(F)c(Cl)c3)c2cc1NC(=O)CCCN1CCC(F)(F)CC1` [Compound 1-8, N-(1-((3-chloro-4-fluorophenyl)amino)-6-methoxyisoquinolin-7-yl)-4-(4,4-difluoropiperidin-1-yl)butanamide], the IC50 lay in the range of 0.1 to 10 µM.

For `COc1cc(NC(=O)CCCN2CCCCC2)cc2c(Nc3ccc(F)c(Cl)c3)nccc12` [Compound 1-29, N-(1-((3-chloro-4-fluorophenyl)amino)-5-methoxyisoquinolin-7-yl)-4-(piperidin-1-yl)butanamide], the IC50 fell in the range of 0.1 to 10 µM.

In the case of `COc1cc(Nc2nccc3cc(OC)c(NC(=O)CCCN4CCCCC4)cc23)ccc1F` [Compound 1-22, N-(1-((4-fluoro-3-methoxyphenyl)amino)-6-methoxyisoquinolin-7-yl)-4-(piperidin-1-yl)butanamide], the IC50 is 11 to 50 µM. To `COc1cc2ccnc(Nc3ccc(F)c(Cl)c3)c2cc1NC(=O)CCCN1CCN(C)CC1` [Compound 1-7, N-(1-((3-chloro-4-fluorophenyl)amino)-6-methoxyisoquinolin-7-yl)-4-(4-methylpiperazin-1-yl)butanamide] belongs 0.1 to 10 µM; to `COc1ccc(Nc2nccc3cc(OC)c(NC(=O)CCCN4CCCCC4)cc23)cc1Cl` [Compound 1-24, N-(1-((3-chloro-4-methoxyphenyl)amino)-6-methoxyisoquinolin-7-yl)-4-(piperidin-1-yl)butanamide], 11 to 50 µM; to `COc1cc2ccnc(Nc3ccc(F)c(Cl)c3)c2cc1NC(=O)CCCN1CCCC1` [Compound 1-4], 0.1 to 10 µM. With `COc1cc2ccnc(Nc3ccc(C)c(Cl)c3)c2cc1NC(=O)CCCN1CCCCC1` [Compound 1-21, N-(1-((3-chloro-4-methylphenyl)amino)-6-methoxyisoquinolin-7-yl)-4-(piperidin-1-yl)butanamide], the IC50 was in the range of 0.1 to 10 µM.

Consider `N#Cc1cccc(Nc2nccc3ccc(NC(=O)CCCN4CCCCC4)cc23)c1` [Compound 1-41, N-(1-((3-cyanophenyl)amino)isoquinolin-7-yl)-4-(piperidin-1-yl)butanamide], for which the IC50 is 11 to 50 µM.

As for `COc1cc2ccnc(Nc3cccc(F)c3)c2cc1NC(=O)CCCN1CCCCC1` [Compound 1-9, N-(1-((3-fluorophenyl)amino)-6-methoxyisoquinolin-7-yl)-4-(piperidin-1-yl)butanamide], the IC50 was 11 to 50 µM. To `O=C(CCCN1CCCCC1)Nc1ccc2ccnc(Nc3ccc(Cl)c(Cl)c3F)c2c1` [Compound 1-34, N-(1-((3,4-dichloro-2-fluorophenyl)amino)isoquinolin-7-yl)-4-(piperidin-1-yl)butanamide] belongs 0.1 to 10 µM; to `COc1cc2ccnc(Nc3ccc(F)cc3)c2cc1NC(=O)CCCN1CCCCC1` [Compound 1-12, N-(1-((4-fluorophenyl)amino)-6-methoxyisoquinolin-7-yl)-4-(piperidin-1-yl)butanamide], 51 to 100 µM.

On to `Cc1ccc(Nc2nccc3ccc(NC(=O)CCCN4CCCCC4)cc23)cc1Cl` [Compound 1-32, N-(1-((3-chloro-4-methylphenyl)amino)isoquinolin-7-yl)-4-(piperidin-1-yl)butanamide], for which the IC50 lay in the range of 0.1 to 10 µM.

`O=C(CCCN1CCCCC1)Nc1ccc2ccnc(Nc3cc(Cl)c(F)c(Cl)c3)c2c1` [Compound 1-36, N-(1-((3,5-dichloro-4-fluorophenyl)amino)isoquinolin-7-yl)-4-(piperidin-1-yl)butanamide]: the IC50 was 0.1 to 10 µM.

For `COc1cc2ccnc(Nc3ccc(F)c(C(C)C)c3)c2cc1NC(=O)CCCN1CCCCC1` [Compound 1-30, N-(1-((4-fluoro-3-isopropylphenyl)amino)-6-methoxyisoquinolin-7-yl)-4-(piperidin-1-yl)butanamide], the IC50 was 11 to 50 µM.
